Earlier results, collected in patent US7265145B2, “Substituted piperidines and pyrrolidines as calcium sensing receptor modulators and method” (Bristol-Myers Squibb Company, priority 2003, dated 2007).

Assays:
[1] = postmenopausal women; placebo-controlled trial
[2] = OVX rats; oral administration; in the presence of an anti-resorptive agent
[3] = intravenous bolus injection

Compound	reduce the risk of non-traumatic, non-spine fractures [1] [%]	reduce the risk of spine fractures [1] [%]	bone mass [2]	serum PTH [3]
PTH peptide fragment (1-34): PTH peptide fragment (1-34) of parathyroid hormone, stimulator of bone formation (SVSEIQLMHNLGKHLNSMERVEWLRKKLQDVHNF; Parathyroid hormone; UniProt P01270 32-65, looked up, fragment)	54	65		
CC(C)(Cc1ccc2ccccc2c1)NC[C@@H](O)COc1cccc(Cl)c1C#N [NPS-2143]			increase in bone mass	transient increase in serum PTH
